Reference: patent US20240024333A1, “USE OF SMALL MOLECULE FAK ACTIVATORS TO PROMOTE MUCOSAL HEALING” (Regents of the University of Minnesota, priority 2020, published 2024)
“Also recorded” adds a separate entry of the source. Values belong to the compound of their own block, whether it stands above or below them.

Tests used:
[1] = over 8 weeks; cited from earlier work
FAK = biological target: T1, FAK (Homo sapiens, UniProt Q05397); assay: Cell-based FAK-Tyr-397 activation (Western blot, Caco-2 cells); settings: for FAK activation / FAK-Tyr-397 phosphorylation (in words): vs. DMSO vehicle control
T1 construct: endogenous in cells; host or cells: Caco-2 (human, ATCC)
Protocol: Human Caco-2 cells were from ATCC (Manassas, VA) and maintained in Dulbecco's Modified Essential Eagle's Medium supplemented with 10% FBS as described by us previously 25. 80-90% confluent Caco-2 cells were seeded into cell culture plates pacificated with 1% heat inactivated bovine serum albumin to prevent adhesion and avoid adhesion-associated background FAK activation. Suspended cells were then treated with DMSO (0.1%) or small molecules for 1 hour before harvesting for Western blotting.
Cells were lysed and protein concentration was determined via bicinchoninic acid protein assay (Thermo Fisher, Rockford, IL). […] Images were taken using a LICOR-Odyssey-Fc imaging system (LI-COR Biosciences, Lincoln, NE).

Caco-2 cells = assay: Caco-2 monolayer wound closure assay; format: cell-based, human; settings: in vitro, 24 hours
Protocol: Caco-2 cells were seeded at 75-80% confluence into collagen I coated 6-well plates. When the cells reached 100% confluence, wounds were made in the monolayers with non-barrier autoclaved tips. Wound images were captured using an inverted light microscope (OLYMPUS CK2, Center Valley, PA) at 0 hours and 24 hours after treatment with DMSO or small molecules. Wound areas were measured with Image J software.

Pyk2 = biological target: T2, Pyk2 (Homo sapiens, UniProt Q14289); assay: Pyk2 activation in intact cells; format: cell-based; settings: intact cells
T2 construct: endogenous in cells; host or cells: Caco-2

[2] = system: intestinal mucosal ulcers; assay: Intestinal mucosal healing in vivo (model not given); design: species or system mice; settings: mouse
Src = biological target: T3, Src (Homo sapiens, UniProt P12931); assay: Src activation in intact cells; format: cell-based; settings: intact cells
T3 construct: endogenous in cells; host or cells: Caco-2
T3 sequence (P12931 whole entry): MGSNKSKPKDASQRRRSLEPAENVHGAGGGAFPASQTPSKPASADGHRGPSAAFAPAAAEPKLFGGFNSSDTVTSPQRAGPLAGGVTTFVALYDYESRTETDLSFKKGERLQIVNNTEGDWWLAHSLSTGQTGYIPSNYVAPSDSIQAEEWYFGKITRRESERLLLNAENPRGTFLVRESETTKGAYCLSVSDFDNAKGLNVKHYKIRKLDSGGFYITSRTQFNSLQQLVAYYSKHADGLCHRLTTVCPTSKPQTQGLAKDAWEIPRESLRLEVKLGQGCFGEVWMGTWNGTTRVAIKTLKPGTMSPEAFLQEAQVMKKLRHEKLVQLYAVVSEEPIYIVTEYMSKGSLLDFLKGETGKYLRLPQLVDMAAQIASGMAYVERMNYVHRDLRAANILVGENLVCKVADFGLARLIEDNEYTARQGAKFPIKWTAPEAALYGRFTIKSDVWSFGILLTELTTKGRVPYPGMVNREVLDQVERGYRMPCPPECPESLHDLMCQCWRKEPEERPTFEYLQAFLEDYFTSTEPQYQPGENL

T1 sequence (Q05397 whole entry): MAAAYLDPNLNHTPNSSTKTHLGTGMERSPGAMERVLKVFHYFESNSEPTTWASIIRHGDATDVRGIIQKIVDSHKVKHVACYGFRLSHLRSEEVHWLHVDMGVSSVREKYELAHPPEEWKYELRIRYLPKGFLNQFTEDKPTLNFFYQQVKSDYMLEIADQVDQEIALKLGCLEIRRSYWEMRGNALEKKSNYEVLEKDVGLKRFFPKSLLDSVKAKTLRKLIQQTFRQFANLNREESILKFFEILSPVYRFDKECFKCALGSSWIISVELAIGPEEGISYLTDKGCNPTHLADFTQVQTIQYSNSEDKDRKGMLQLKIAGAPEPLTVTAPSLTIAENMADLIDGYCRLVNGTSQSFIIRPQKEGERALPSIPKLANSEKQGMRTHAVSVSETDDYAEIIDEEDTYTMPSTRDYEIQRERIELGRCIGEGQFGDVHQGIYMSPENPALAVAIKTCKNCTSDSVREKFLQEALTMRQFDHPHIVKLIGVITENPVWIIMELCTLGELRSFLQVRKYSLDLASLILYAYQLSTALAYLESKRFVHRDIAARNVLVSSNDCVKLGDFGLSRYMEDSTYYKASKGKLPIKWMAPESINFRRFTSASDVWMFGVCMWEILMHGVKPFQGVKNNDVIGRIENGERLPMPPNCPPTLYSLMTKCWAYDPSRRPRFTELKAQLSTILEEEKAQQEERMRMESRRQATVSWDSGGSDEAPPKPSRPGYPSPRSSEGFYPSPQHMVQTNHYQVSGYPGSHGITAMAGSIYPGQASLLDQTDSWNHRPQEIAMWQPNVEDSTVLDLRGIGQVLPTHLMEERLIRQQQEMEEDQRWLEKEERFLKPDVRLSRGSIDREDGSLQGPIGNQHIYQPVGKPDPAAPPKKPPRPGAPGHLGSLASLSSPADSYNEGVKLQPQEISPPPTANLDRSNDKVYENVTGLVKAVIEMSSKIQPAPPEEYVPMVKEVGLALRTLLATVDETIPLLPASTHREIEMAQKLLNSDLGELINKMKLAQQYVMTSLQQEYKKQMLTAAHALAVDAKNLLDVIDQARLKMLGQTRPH
T2 sequence (Q14289 whole entry): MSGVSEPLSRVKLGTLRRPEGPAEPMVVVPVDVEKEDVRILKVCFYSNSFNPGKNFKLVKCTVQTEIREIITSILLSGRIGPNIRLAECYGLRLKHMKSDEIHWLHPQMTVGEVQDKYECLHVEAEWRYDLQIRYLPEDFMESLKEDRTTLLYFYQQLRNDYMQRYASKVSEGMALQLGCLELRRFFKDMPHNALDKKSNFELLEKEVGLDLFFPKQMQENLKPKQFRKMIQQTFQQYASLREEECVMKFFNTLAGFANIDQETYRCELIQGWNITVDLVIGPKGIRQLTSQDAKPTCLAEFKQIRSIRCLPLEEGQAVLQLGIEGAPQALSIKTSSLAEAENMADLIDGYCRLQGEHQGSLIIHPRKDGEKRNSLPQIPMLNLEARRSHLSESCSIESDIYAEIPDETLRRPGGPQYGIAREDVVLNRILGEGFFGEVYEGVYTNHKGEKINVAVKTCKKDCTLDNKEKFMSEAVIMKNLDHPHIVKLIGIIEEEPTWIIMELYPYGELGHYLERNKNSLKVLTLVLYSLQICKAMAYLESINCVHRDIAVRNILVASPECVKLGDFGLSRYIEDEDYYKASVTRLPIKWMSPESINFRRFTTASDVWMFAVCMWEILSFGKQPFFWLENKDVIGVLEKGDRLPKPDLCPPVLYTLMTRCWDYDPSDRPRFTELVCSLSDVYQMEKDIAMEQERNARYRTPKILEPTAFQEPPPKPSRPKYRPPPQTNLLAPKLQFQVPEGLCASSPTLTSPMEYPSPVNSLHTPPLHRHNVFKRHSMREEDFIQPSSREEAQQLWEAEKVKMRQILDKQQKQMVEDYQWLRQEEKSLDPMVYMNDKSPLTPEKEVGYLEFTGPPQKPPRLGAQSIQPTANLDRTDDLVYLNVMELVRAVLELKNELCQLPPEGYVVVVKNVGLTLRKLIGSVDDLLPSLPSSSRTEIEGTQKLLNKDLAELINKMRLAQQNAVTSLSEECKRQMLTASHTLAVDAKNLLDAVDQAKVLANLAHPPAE

Structure (SMILES): CCCCC(C)(O)C/C=C/[C@H]1[C@H](O)CC(=O)[C@@H]1CCCCCCC(=O)OC (mixture of isomers) [Misoprostol]
serious side effects [1]: 8%

Structure (SMILES): COc1ccc(C2CCCN2C(=O)CC(NC(N)=O)c2ccccc2Cl)cc1OC (stereo not drawn) [Compound 10]
concentration as low as which FAK is activated (FAK): 10 nM

Structure (SMILES): COc1ccc(C2CCCN2C(=O)Nc2cc(C(F)(F)F)ccc2N2CCOCC2)cc1 (stereo not drawn) [Compound 9]
monolayer wound closure / epithelial sheet migration (in words) (Caco-2 cells): stimulated monolayer wound closure | Pyk2 activation (in words) (Pyk2): activating neither | intestinal mucosal healing in vivo (in words) [2]: stimulated | concentration as low as which FAK is activated (FAK): 10 nM | FAK activation / FAK-Tyr-397 phosphorylation (in words) (FAK): increased FAK-Tyr 397 phosphorylation | Src activation (in words) (Src): activating neither

Now from value to compound, other results behind:

FAK activation / FAK-Tyr-397 phosphorylation (in words) (FAK): seemed to activate FAK
Structure (SMILES): COc1ccc(C(CNC(=O)Nc2cc(C(F)(F)F)ccc2N2CCOCC2)N(C)C)cc1 (stereo not drawn) [Compound 31]

concentration level of FAK activation (in words) (FAK): nanomolar to picomolar levels
Structure (SMILES): O=C(Nc1cc(C(F)(F)F)ccc1N1CCOCC1)N1CCCC1C1CCCCC1 (stereo not drawn) [Compound 21]
monolayer wound closure / epithelial sheet migration (in words) (Caco-2 cells): promote the healing of intestinal epithelial wounds in vitro | FAK activation / FAK-Tyr-397 phosphorylation (in words) (FAK): increased; also recorded: stimulate FAK phosphorylation at remarkably low concentrations

FAK activation / FAK-Tyr-397 phosphorylation (in words) (FAK): does not enhance FAK activation
Structure (SMILES): COc1ccc(CC(C)C(=O)Nc2ccc(N(C)C)cc2C)cc1 (stereo not drawn) [Compound 19]

FAK-Tyr-397/FAK fold change (FAK; Cell-based FAK-Tyr-397 activation): 1.0 fold change | FAK activation / FAK-Tyr-397 phosphorylation (in words) (FAK): reduced activation
Structure (SMILES): O=C(Nc1cc(C(F)(F)F)ccc1C1CCOCC1)N1CCCC1c1ccccc1 (stereo not drawn) [Compound 14]
